# Where “and” joins values, the source holds several entries; their conditions need not be identical. Equal values may be shown once. Read-outs that look alike come from different tables or passages of the source.
# Tests used:
# Format in all cases: biochemical
# human CSNK1A1 [1] = molecular target: T1, human CSNK1A1 (Homo sapiens (Human), UniProt P48729); assay: CSNK1A1 High ATP Assay (ADP-Glo, 1 mM ATP); conditions: read-out: CSNK1A1 high ATP assay IC50 [mol/l] (median)
# In short: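 Kinase activity taken as ADP generated, quantified by ADP-Glo luminescence after 1 h ATP depletion and 1 h detection at 22 °C. Enzyme is GST–full-length human CSNK1A1 (insect cell-expressed), pre-bound to compound for 15 min, with phosphopeptide substrate and 1 mM ATP.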
# [2] = molecular target: wild-type Epidermal Growth Factor Receptor (EGFR) (Homo sapiens (Human), UniProt P00533); assay: WT-EGFR Kinase Assay (TR-FRET, 2 mM ATP)
# human CSNK1A1 [3] = molecular target: T1, human CSNK1A1; assay: CSNK1A1 Assay 2 (ADP-Glo, 1 μM ATP); conditions: substrate biotin-Ahx-KRRRAL-pS-VASLPGL, read-out: CSNK1A1 Assay 2 IC50 [mol/l] (median)
# In short: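 Full-length human CSNK1A1 as an N-terminal GST fusion (baculovirus/insect cells) with biotinylated peptide substrate biotin-Ahx-KRRRAL-pS-VASLPGL and 1 μM ATP, in HEPES pH 7.5 buffer. Compounds were pre-incubated with enzyme (~0.0375 ng/μL) for 15 min at 22 °C. Generated ADP was read by ADP-Glo luminescence as the activity measure.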
# human CSNK1D = human CSNK1D (Homo sapiens (Human), UniProt P48730); assay: CSNK1D Assay (ADP-Glo, 1 μM ATP); conditions: read-out: CSNK1D IC50 [mol/l] (median)
# In short: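 Activity is read as ADP produced, by ADP-Glo luminescence after 1 h steps at 22 °C. The reaction uses 1 μM ATP, a biotinylated peptide and insect-cell-expressed GST–CSNK1D (about 0.5 ng/μL) in pH 7.5 HEPES buffer, with 15 min compound–enzyme preincubation.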
# [4] = read-out: EGFR Wildtyp- 2 mM ATP IC50 [mol/l] (median)
# [5] = EGFR Wildtyp- 2 mM ATP IC50 [mol/l] (median)
# T1 sequence (P48729 whole entry): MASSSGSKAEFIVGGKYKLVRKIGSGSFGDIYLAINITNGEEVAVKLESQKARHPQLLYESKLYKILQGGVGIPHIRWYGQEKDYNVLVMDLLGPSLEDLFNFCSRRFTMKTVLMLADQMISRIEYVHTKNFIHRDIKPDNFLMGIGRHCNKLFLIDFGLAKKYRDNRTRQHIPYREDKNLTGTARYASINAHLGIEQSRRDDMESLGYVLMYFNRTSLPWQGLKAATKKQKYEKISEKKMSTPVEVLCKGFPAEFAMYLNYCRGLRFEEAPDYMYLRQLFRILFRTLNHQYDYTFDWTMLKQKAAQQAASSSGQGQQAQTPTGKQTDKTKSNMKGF
# Chain of human CSNK1D (P48730 whole entry): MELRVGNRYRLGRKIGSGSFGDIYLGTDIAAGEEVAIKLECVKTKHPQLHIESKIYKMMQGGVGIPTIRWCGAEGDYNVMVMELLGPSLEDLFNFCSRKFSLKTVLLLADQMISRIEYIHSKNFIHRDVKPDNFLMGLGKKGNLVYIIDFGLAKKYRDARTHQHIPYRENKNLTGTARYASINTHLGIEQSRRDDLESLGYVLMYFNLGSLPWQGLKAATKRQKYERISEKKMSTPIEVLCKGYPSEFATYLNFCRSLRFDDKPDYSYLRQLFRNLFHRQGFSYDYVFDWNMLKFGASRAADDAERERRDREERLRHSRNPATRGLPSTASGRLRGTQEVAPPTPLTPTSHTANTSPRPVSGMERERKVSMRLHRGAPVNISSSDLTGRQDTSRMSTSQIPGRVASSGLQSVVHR
# Chain of wild-type Epidermal Growth Factor Receptor (EGFR) (P00533 669-1210): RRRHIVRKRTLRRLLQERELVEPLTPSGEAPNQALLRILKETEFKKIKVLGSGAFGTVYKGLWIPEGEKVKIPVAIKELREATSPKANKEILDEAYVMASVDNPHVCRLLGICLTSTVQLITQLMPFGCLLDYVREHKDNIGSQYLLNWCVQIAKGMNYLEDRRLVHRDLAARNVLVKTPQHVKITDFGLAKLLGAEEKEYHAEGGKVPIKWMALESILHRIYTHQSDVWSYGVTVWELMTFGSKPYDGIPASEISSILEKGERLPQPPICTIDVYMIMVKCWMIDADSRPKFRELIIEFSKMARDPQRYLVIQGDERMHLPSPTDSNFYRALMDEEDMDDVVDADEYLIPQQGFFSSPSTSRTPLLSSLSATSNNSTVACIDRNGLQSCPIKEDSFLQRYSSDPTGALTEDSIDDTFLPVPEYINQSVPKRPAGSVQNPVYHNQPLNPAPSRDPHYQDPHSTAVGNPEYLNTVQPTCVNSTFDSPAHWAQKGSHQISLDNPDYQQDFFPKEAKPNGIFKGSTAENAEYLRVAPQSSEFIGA
SMILES,IC50 (human CSNK1A1 [1]),"IC50 [2, 4]",IC50 (human CSNK1A1 [3]),IC50 (human CSNK1D),"IC50 [2, 5]"
"COC(=O)c1ccc(CC(=O)Nc2cc(-c3[nH]c4c(c3Nc3ccccc3)C(=O)N(C)CC4)ccn2)cc1 [Example 117, methyl 4-(2-{[4-(3-anilino-5-methyl-4-oxo-4,5,6,7-tetrahydro-1H-pyrrolo[3,2-c]pyridin-2-yl)pyridin-2-yl]amino}-2-oxoethyl)benzoate]",96.2 nM,1270 nM,1.46 nM,2.99 nM,
"CC1Cc2[nH]c(-c3ccnc(NC(=O)Cc4ccc(F)cc4)c3)c(Nc3ccccc3F)c2C(=O)N1C (single isomer, unassigned; (+)) [Example 101, (+)-N-{4-[3-(2-fluoroanilino)-5,6-dimethyl-4-oxo-4,5,6,7-tetrahydro-1H-pyrrolo[3,2-c]pyridin-2-yl]pyridin-2-yl}-2-(4-fluorophenyl)acetamide]",258 nM,,3.74 nM,7.42 nM,> 20000 nM
"CCN1CCc2[nH]c(-c3ccnc(NC(=O)C(C)c4ccc(F)cc4)c3)c(Nc3ccccc3)c2C1=O (single isomer, unassigned) [Example 26, N-[4-(3-anilino-5-ethyl-4-oxo-4,5,6,7-tetrahydro-1H-pyrrolo[3,2-c]pyridin-2-yl)pyridin-2-yl]-2-(4-fluorophenyl)propanamide]",288 nM,> 20000 nM,4.05 nM,23.1 nM,
"CN1CCc2[nH]c(-c3ccnc(NC(=O)Cc4ccc(F)cc4)c3)c(Nc3cc(F)ccc3F)c2C1=O [Example 150, N-{4-[3-(2,5-difluoroanilino)-5-methyl-4-oxo-4,5,6,7-tetrahydro-1H-pyrrolo[3,2-c]pyridin-2-yl]pyridin-2-yl}-2-(4-fluorophenyl)acetamide]",1270 nM,18300 nM,17.9 nM,26.6 nM,> 20000 nM
"CN1CCc2[nH]c(-c3ccnc(NC(=O)Cc4ccc(C(=O)N5CCNCC5)cc4)c3)c(Nc3ccccc3)c2C1=O [Example 153, N-[4-(3-anilino-5-methyl-4-oxo-4,5,6,7-tetrahydro-1H-pyrrolo[3,2-c]pyridin-2-yl)pyridin-2-yl]-2-[4-(piperazine-1-carbonyl)phenyl]acetamide]",73.9 nM,287 nM,1.96 nM,9.28 nM,
"O=C1NC2(CCC2)Cc2[nH]c(-c3ccnc(NC(=O)C(CC(F)F)c4ccc(F)cc4)c3)c(Nc3ccccc3)c21 (single isomer, unassigned; (-)) [Example 56, (−)-N-[4-(3′-anilino-4′-oxo-1′,4′,5′,7′-tetrahydrospiro[cyclobutane-1,6′-pyrrolo[3,2-c]pyridin]-2′-yl)pyridin-2-yl]-4,4-difluoro-2-(4-fluorophenyl)butanamide]",1080 nM,,19.2 nM,27.9 nM,857 nM
"O=C(Cc1ccc(F)cc1)Nc1cc(-c2[nH]c3c(c2Nc2cccc(F)c2Cl)C(=O)NC2(CCC2)C3)ccn1 [Example 122, N-{4-[3′-(2-chloro-3-fluoroanilino)-4′-oxo-1′,4′,5′,7′-tetrahydrospiro[cyclobutane-1,6′-pyrrolo[3,2-c]pyridin]-2′-yl]pyridin-2-yl}-2-(4-fluorophenyl)acetamide]",26.8 nM,2150 nM,4.12 nM,4.71 nM,
"CC1(C)Cc2[nH]c(-c3ccnc(NC(=O)C(CC(F)F)c4ccc(F)cc4)c3)c(Nc3cccc(F)n3)c2C(=O)N1 (racemic) [Example 128, 4,4-difluoro-2-(4-fluorophenyl)-N-(4-{3-[(6-fluoropyridin-2-yl)amino]-6,6-dimethyl-4-oxo-4,5,6,7-tetrahydro-1H-pyrrolo[3,2-c]pyridin-2-yl}pyridin-2-yl)butanamide (Racemate)]",31.4 nM,,7.16 nM,11.4 nM,> 20000 nM
"CC1(C)Cc2[nH]c(-c3ccnc(NC(=O)C(CN)c4ccc(F)cc4)c3)c(Nc3ccccc3)c2C(=O)N1 (single isomer, unassigned; enantiomer 2) [Example 141, 3-amino-N-[4-(3-anilino-6,6-dimethyl-4-oxo-4,5,6,7-tetrahydro-1H-pyrrolo[3,2-c]pyridin-2-yl)pyridin-2-yl]-2-(4-fluorophenyl)propanamide (Enantiomer 2)]",599 nM,> 20000 nM,57.8 nM,127 nM,
"CC(C(=O)Nc1cc(-c2[nH]c3c(c2Nc2ccccc2)C(=O)NC(C)(C)C3)ccn1)c1ccc(F)cc1 (single isomer, unassigned) [Example 39, N-[4-(3-anilino-6,6-dimethyl-4-oxo-4,5,6,7-tetrahydro-1H-pyrrolo[3,2-c]pyridin-2-yl)pyridin-2-yl]-2-(4-fluorophenyl)propanamide]",2.84 µM and 2.9 µM and > 20 µM (2×),,179 nM,214 nM,> 20000 nM

# Source: patent US12227501B2, “3-amino-2-[2-(acylamino)pyridin-4-yl]-1,5,6,7-tetrahydro-4h-pyrrolo[3,2-c]pyridin-4-one as CSNK1 inhibitors” (Bayer Aktiengesellschaft, priority 2019, dated 2025)
